Results published in ChEMBL document CHEMBL3352309, “Three types of cytotoxic natural caged-scaffolds: pure enantiomers or partial racemates” (J Nat Prod, 2014).
≈ marks a conversion by molar mass, not a printed value.

The molecules below were run on MCF7 (assay: Cytotoxicity against human MCF7 cells after 72 hrs by sulforhodamine B assay). Conditions: MCF7, 72 h.
Format: functional, cell-based

Point of comparison: `CO[C@]12C=C3C(=O)c4c(O)cccc4O[C@@]34[C@@H](C1)C(C)(C)O[C@]4(CC=C(C)C)C2=O` (racemic), IC50 0.36 µg/mL (≈ 0.877 µM). Against it:
- CO[C@]12C=C3C(=O)c4c(O)cccc4O[C@@]34C[C@@H]1C(C)(C)O[C@]2(CC=C(C)C)C4=O (racemic) — higher, > 5 µg/mL
- COC(=O)[C@@]1(CC=C(C)C)OC(C)(C)[C@@H]2CC(=O)C=C3C(=O)c4c(O)cccc4O[C@]321 (racemic) — higher, > 5 µg/mL
- CC[C@@]1(O)C(=O)OCc2c1cc1n(c2=O)Cc2cc3ccccc3nc2-1 [CAMPTOTHECIN] — lower, < 0.024 µg/mL
